From ChEMBL document CHEMBL6103607, “Novel Heterocyclic Piperazine Amide Derivatives as Alpha-synuclein PET Ligands for Diagnosis of Parkinson's Disease” (ACS Med Chem Lett, 2025)

target: Amyloid-beta precursor protein (Homo sapiens, UniProt P05067); assay: Displacement of [3H]-105 from amyloid-beta (unknown origin) in human brain homogenate assessed as inhibition constant incubated for 90 mins by radioligand binding assay; assay type: tissue-based
Sequence (P05067 whole entry): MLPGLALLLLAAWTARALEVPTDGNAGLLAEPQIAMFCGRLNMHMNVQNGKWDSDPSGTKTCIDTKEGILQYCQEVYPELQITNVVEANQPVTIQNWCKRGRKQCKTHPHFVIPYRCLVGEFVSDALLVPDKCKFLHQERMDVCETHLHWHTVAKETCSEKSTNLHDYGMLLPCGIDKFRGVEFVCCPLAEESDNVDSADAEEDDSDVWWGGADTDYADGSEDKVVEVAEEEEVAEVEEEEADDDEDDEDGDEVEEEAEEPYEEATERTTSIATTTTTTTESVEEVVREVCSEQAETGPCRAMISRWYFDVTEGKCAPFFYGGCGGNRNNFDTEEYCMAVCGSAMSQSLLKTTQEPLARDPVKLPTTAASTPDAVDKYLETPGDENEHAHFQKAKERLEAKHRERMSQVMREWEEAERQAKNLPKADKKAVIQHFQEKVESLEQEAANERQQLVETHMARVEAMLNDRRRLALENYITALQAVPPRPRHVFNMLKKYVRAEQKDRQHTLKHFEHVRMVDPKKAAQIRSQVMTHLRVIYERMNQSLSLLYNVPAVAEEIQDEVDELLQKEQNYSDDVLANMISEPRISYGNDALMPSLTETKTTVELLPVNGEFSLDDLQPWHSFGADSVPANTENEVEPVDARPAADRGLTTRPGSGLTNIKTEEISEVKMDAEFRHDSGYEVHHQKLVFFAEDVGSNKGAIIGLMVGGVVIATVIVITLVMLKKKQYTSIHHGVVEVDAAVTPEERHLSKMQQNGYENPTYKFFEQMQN

SMILES	Ki
Cc1cocc1-c1ccc(C(=O)Nc2cnc(N3CCN(c4ccccn4)C[C@@H]3C)nc2)cn1	10.8 µM
C[C@H]1CN(c2ccccn2)CCN1c1ncc(NC(=O)c2ccc(-n3cccn3)nc2)cn1	10.8 µM
COC[C@H]1CN(c2ccccn2)CCN1c1ncc(NC(=O)c2ccc(-n3cccn3)nc2)cn1	12 µM
Cc1ccc(N2C[C@@H](C)N(c3ncc(NC(=O)c4ccc(-c5cncc(F)c5)nc4)cn3)[C@@H](C)C2)nc1	12 µM

More lines, now with the values ahead:

Ki	SMILES
12 µM	C[C@H]1CN(c2ccc(F)cn2)CCN1c1ncc(NC(=O)c2ccc(N3CC[C@@H](F)C3)nc2)cn1
12 µM	C[C@H]1CN(c2cc([N+](=O)[O-])ccn2)CCN1c1ncc(NC(=O)c2ccc(N3CC(F)(F)C3)nc2)cn1
12 µM	C[C@H]1CN(c2ccc(F)cn2)CCN1c1ncc(NC(=O)c2ccc(N3CCC3)nc2)cn1
12 µM	C[C@H]1CN(c2ccc(F)cn2)CCN1c1ncc(NC(=O)c2ccc(N3CC(F)C3)nc2)cn1
